In patent US20090142304A1, “Composition for Improving Intestinal Flora” (priority 2005, published 2009):

What was measured:
Type in all cases: in vivo
[1] = tested on: lactic acid bacteria belonging to genus Lactobacillus; test: Growth effect on lactic acid bacteria in human intestine by intake of 1-kestose (Example 1, fecal count, Mitsuoka method)
Excerpt: (§1) Quantitative determination of intestinal lactic acid bacteria counts can be carried out by a conventional method. For example, the lactic acid bacteria counts can be quantitatively determined according to the Mitsuoka's method (Mitsuoka Tomotari, “Chounaikin no Sekai (The World of Intestinal Bacteria)”, Sobunsha Co., Ltd., Tokyo, p. 53-65) by sampling feces of a tested subject. The intestinal Bifidobacterium count can be similarly quantitatively determined.
(§2) A sample composition containing 99.4% of 1-kestose, 0.15% of acesulfame potassium, 0.32% of sucralose and 0.13% of Sweetness Enhancer ME-2208T (Trade Name) (Firmenich SA) was used (all by % by weight).
In a test, each 10 g per day of the sample composition was fed orally for 2 months to 7 male and female test subjects with mild diabetes in the age range of 20 to 70 years. Samples of the feces of the respective subjects were collected just before the start of intake (month 0), 2 months after the start of intake (month 2) and 1 month after the end of intake (month 3), and the lactic acid bacteria counts in the samples were quantitatively determined by the method of Mitsuoka (Mitsuoka Tomotari “Chounaikin no Sekai (The World of Intestinal Bacteria)” Sobunsha Co., Ltd., Tokyo, p. 53-65). Similarly, the Bifidobacterium counts in the samples were quantitatively determined.
By 5 out of the subjects 7, lactic acid bacteria belonging to genus Lactobacillus were detected at 10^6 CFU/g-feces or higher, and the changes of the lactic acid bacteria count and the Bifidobacterium count by the intake of 1-kestose with respect to the 5 subjects are shown in the Figures.

[2] = tested on: Bifidobacterium; test: Growth effect on Bifidobacterium in human feces by intake of Meioligo P (Example 2); details: fed as Meioligo P 3 g per day (1.05 g 1-kestose)
Excerpt: as §1
(§3) As a sample composition, Meioligo P (Trade Name) (Meiji Seika Kaisha), which was a composition containing 35% of 1-kestose, 55% of nystose and 10% of fructo-furanosyl nystose, was used.
(§4) In a test, each 3 g per day of the sample composition (1.05 g based on the weight of 1-kestose) was fed orally for 2 months to 7 healthy female test subjects in the age range of 19 to 41 years. Samples of the feces of the respective subjects were then collected just before the start of intake (week 0), 2 weeks after the start of intake (week 2) and 2 weeks after the end of intake (week 4), and the lactic acid bacteria count and the Bifidobacterium count in the samples were quantitatively determined similarly to Example 1.
(§5) The changes of the lactic acid bacteria count and the Bifidobacterium count in the feces by the intake of 1-kestose with respect to the 7 subjects are shown in the Figures.

[3] = tested on: Bifidobacterium; test: Growth effect on Bifidobacterium in human feces by intake of 1-kestose (Example 1); details: 10 g per day orally for 2 months, 5 mild diabetes subjects
Excerpt: as §1, §2
In a test, each 10 g per day of the sample composition was fed orally for 2 months to 7 male and female test subjects with mild diabetes in the age range of 20 to 70 years. Samples of the feces of the respective subjects were collected just before the start of intake (month 0), 2 months after the start of intake (month 2) and 1 month after the end of intake (month 3), and the lactic acid bacteria counts in the samples were quantitatively determined by the method of Mitsuoka (Mitsuoka Tomotari “Chounaikin no Sekai (The World of Intestinal Bacteria)” Sobunsha Co., Ltd., Tokyo, p. 53-65). Similarly, the Bifidobacterium counts in the samples were quantitatively determined. […]

[4] = tested on: Lactobacillus sp.; test: Growth effect on lactic acid bacteria in human feces by intake of Meioligo P (Example 2)
Excerpt: as §1, §3, §4, §5

## OC[C@H]1O[C@@](CO)(OC[C@@]2(O[C@H]3O[C@H](CO)[C@@H](O)[C@H](O)[C@H]3O)O[C@H](CO)[C@@H](O)[C@@H]2O)[C@@H](O)[C@@H]1O [1-kestose]
[1]; 10 g per day orally for 2 months, 5 mild diabetes subjects
  increase of mean Lactobacillus sp. count, after vs before the intake: about 10 fold
[1]; human whose lactic acid bacteria count in the feces is ≧10^6 CFU/g or higher (Example 1)
  effect of the composition containing 1-kestose by lactic acid bacteria count in the feces: stronger
[1]; sample composition 99.4% 1-kestose, 10 g per day orally for 2 months, subjects with mild diabetes with Lactobacillus at 10^6 CFU/g-feces or higher (5 of 7)
  subjects in whom the count of Lactobacillus sp. was increased by intake: 4 out of the 5
[2]; 7 healthy female subjects
  subjects in whom the Bifidobacterium count was increased: 6 out of the 7
[2]; 7 healthy females
  increase of mean Bifidobacterium count, after vs before the intake: about 2 fold
[3]
  increase of mean Bifidobacterium count, after vs before the intake: about 7 fold
[3]; sample composition 99.4% 1-kestose
  subjects in whom the Bifidobacterium count was increased: all of 5
[4]; fed as Meioligo P 3 g per day (1.05 g 1-kestose), 7 healthy females
  increase of mean Lactobacillus sp. count, after vs before the intake: about 20 fold
[4]; fed as Meioligo P 3 g per day (1.05 g 1-kestose), the 4 subjects with increase
  increase of Lactobacillus sp. count in each of the 4 subjects with increase: ≥ 10 fold
[4]; fed as Meioligo P (35% 1-kestose, 55% nystose, 10% fructo-furanosyl nystose), 3 g per day (1.05 g 1-kestose) orally, 7 healthy female subjects
  subjects in whom the count of Lactobacillus sp. was increased by intake: 4 out of 7
